Entries after “also recorded” stand apart in the source; their conditions may differ.
Legend:
[1] = test system: Renca cells (renal cell carcinoma); test: Effect of the isomers on in vivo tumour growth in mice challenged with Renca cells; conditions: for Tumour surface, overall values (Mean) / Tumour surface, overall values (Median) / Tumour volume, overall values (Mean) / Tumour volume, overall values (Median): 260 ng/mouse i.p. on days 6, 7 and 14, s.c. Renca in Balb/c mice; for Inhibitory effect on in vivo Renca tumour growth (conclusion in words): 260 ng i.p. on days 6, 7 and 14, Balb/c mice
Text: This assay was made in order to check the effect of each stereoisomer on in vivo tumour growth in mice challenged with Renca cells. Their effect was compared with placebo. The stereoisomers assayed were: • Isomer 1: 3R,5S-1-(3-Amino-5-carboxy-2-oxopyrrolidin-3-ylmethyl)pyridinium bromide hidrobromide (9b) • Isomer 2: 3R,5R-1-(3-Amino-5-carboxy-2-oxopyrrolidin-3-ylmethyl)pyridinium bromide hidrobromide (9c) • Isomer 3: 3S,5S-1-(3-Amino-5-carboxy-2-oxopyrrolidin-3-ylmethyl)pyridinium bromide hidrobromide (9a) • Isomer 4: 3 S,5R-1-(3-Amino-5-carboxy-2-oxopyrrolidin-3-ylmethyl)pyridinium bromide hidrobromide (9d)
Renca is a renal cell carcinoma originated in Balb/c mouse strain, and therefore syngeneic in mice with Balb/c genetic background [Melder R J et al., Cancer Immunol. Immunother., 2005, 54:535-547; Felluga B et al., 1969, J. Natl. Cancer Inst. 43:319-333]. Renca is considered a moderate immunogenic tumour and used as suitable model for testing immunointervention approaches [Salup R R, et al., 1992, The Journal of Urology, 147:1120-1123].
Renca cells (CLS, Eppelheim, Germany) were maintained in vitro by serial passages every 3-4 days. Cultures were performed with RPMI medium medium (RPMI, 10% foetal calf serum, 2 mM L-glutamine, non essential amino acids, 1 mM sodium pyruvate, 20 mM HEPES, 80 μg/mL gentamycin; all of them were purchased from Sigma, St. Louis, Mo., USA) by seeding 5×10^6 cells onto 75 cm^2 culture flasks. Tumour cells collected from 48 hour cultures upon trypsinization (Sigma, St. Louis, Mo., USA) were used as source of Renca cells for the studies described below.
Each isomer was tested at the dose levels of 260 ng administered on days 6, 7 and 14 after tumour inoculation.
The treatments were given by intraperitoneal route. The volume inoculated was 0.2 mL/animal. This route was chosen because it is the one described in the original method [Perez S, et al., 2003, Clinical Cancer Research. 9:5776-5785].
Tumours were established by subcutaneous inoculation in the right hind flank. Mice (Balb/c) were inoculated with 0.2 mL containing 105 viable Renca cells. The day of subcutaneous inoculation will be considered Day 0 of the test.
Balb/c mice inoculated with Renca cells were distributed into 5 experimental groups:
Mice were observed daily and the tumour size recorded twice a week. This was carried out by measuring two perpendicular diameters (L/W) with a calliper. These measures were used to obtain both tumour surface and volume:
Tumour surface=L×W (mm^2)
Tumour volume=L×W^2×½(mm^3)
Results were expressed as single values and/or as the mean±SD or median from each experimental group.
A case-control study was performed with treated and control mice in order to determine whether differences between isomers and administration of placebo were present. The data obtained (tumoral surface and volume) were tested for Normal distribution within the groups—Kolmogorov Smimov test p<0,05—. […] The U-test of Mann Withney was chosen for being one of the better known non-parametrical tests, anyway, results for this test are equivalent both to those of Wilcoxon's sum of ranges and Kruskal-Wallis two-groups test.
Due to the high dispersion of data, outlayers (animals beyond percentile 25 or above percentile 75 for tumour surface at day 25) were excluded of the study.

[2] = Solubility observed during purification attempts; assay type: physicochemical; conditions: mixture of stereoisomers
Text: Also, its immediate precursor BLAS-320(Ac) (1-(1-acetyl-3-acetylamino-5-carboxy-2-oxopyrrolidin-3-ylmethyl)pyridinium acetate) [drawing 7] was synthesized using different procedures.

[3] = day 11 after tumour inoculation
[4] = day 14 after tumour inoculation
[5] = day 18 after tumour inoculation
[6] = day 21 after tumour inoculation
[7] = day 25 after tumour inoculation

| SMILES | Tumour surface, overall values (Mean) ([1]; day 0 after tumour inoculation) | Tumour surface, overall values (Median) ([1]; day 0 after tumour inoculation) | Tumour volume, overall values (Mean) ([1]; day 0 after tumour inoculation) | Tumour volume, overall values (Median) ([1]; day 0 after tumour inoculation) | Tumour surface, overall values (Mean) [1, 3] | Tumour surface, overall values (Median) [1, 3] | Tumour volume, overall values (Mean) [1, 3] | Tumour volume, overall values (Median) [1, 3] | Tumour surface, overall values (Mean) [1, 4] | Tumour surface, overall values (Median) [1, 4] | Tumour volume, overall values (Mean) [1, 4] | Tumour volume, overall values (Median) [1, 4] | Tumour surface, overall values (Mean) [1, 5] | Tumour surface, overall values (Median) [1, 5] | Tumour volume, overall values (Mean) [1, 5] | Tumour volume, overall values (Median) [1, 5] | Tumour surface, overall values (Mean) [1, 6] | Tumour surface, overall values (Median) [1, 6] | Tumour volume, overall values (Mean) [1, 6] | Tumour volume, overall values (Median) [1, 6] | further results |
| --- | --- | --- | --- | --- | --- | --- | --- | --- | --- | --- | --- | --- | --- | --- | --- | --- | --- | --- | --- | --- | --- |
| Br.N[C@@]1(C[n+]2ccccc2)C[C@H](C(=O)O)NC1=O.[Br-] (single isomer, unassigned; isomer 2) [isomer 2, 3R,5R-1-(3-Amino-5-carboxy-2-oxopyrrolidin-3-ylmethyl)pyridinium bromide hidrobromide] | 0 mm^2 | 0 mm^2 | 0 mm^3 | 0 mm^3 | 1.6 mm^2 | 0 mm^2 | 2.34 mm^3 | 0 mm^3 | 14.46 mm^2 | 9 mm^2 | 32.05 mm^3 | 13.5 mm^3 | 55.14 mm^2 | 42 mm^2 | 217.43 mm^3 | 126 mm^3 | 96.86 mm^2 | 77 mm^2 | 453.89 mm^3 | 278.75 mm^3 | Tumour surface, overall values (Mean) [1, 7]: 156.53 mm^2; Tumour surface, overall values (Median) [1, 7]: 140 mm^2; Tumour volume, overall values (Mean) [1, 7]: 938.48 mm^3; Tumour volume, overall values (Median) [1, 7]: 613.25 mm^3; Deaths of mice in treatment group ([1]; second week after tumour inoculation, 260 ng i.p., animals excluded): Two mice from isomer 2 group died for unknown causes |
| Br.N[C@]1(C[n+]2ccccc2)C[C@H](C(=O)O)NC1=O.[Br-] (single isomer, unassigned; isomer 4) [isomer 4, 3 S,5R-1-(3-Amino-5-carboxy-2-oxopyrrolidin-3-ylmethyl)pyridinium bromide hidrobromide] | 0 mm^2 | 0 mm^2 | 0 mm^3 | 0 mm^3 | 0 mm^2 | 0 mm^2 | 0 mm^3 | 0 mm^3 | 2.87 mm^2 | 0 mm^2 | 4.73 mm^3 | 0 mm^3 | 15.47 mm^2 | 9 mm^2 | 40.67 mm^3 | 13.5 mm^3 | 37.37 mm^2 | 25 mm^2 | 126.42 mm^3 | 62.5 mm^3 | Inhibitory effect on in vivo Renca tumour growth (conclusion in words) [1]: inhibit the in vivo growth of the renal cell carcinoma (Renca); also recorded: highest inhibitory effect on Renca tumour growth; p of differences in Renca tumour growth rate vs. placebo (surface or volume), Mann-Whitney U test ([1]; all days scored after the day 14th of tumour development, 260 ng i.p.): < 0.01; Tumour surface, overall values (Mean) [1, 7]: 81.3 mm^2; Tumour surface, overall values (Median) [1, 7]: 63.5 mm^2; Tumour volume, overall values (Mean) [1, 7]: 372.82 mm^3; Tumour volume, overall values (Median) [1, 7]: 238.25 mm^3 |
| Br.N[C@]1(C[n+]2ccccc2)C[C@@H](C(=O)O)NC1=O.[Br-] (single isomer, unassigned; isomer 3) [isomer 3, 3S,5S-1-(3-Amino-5-carboxy-2-oxopyrrolidin-3-ylmethyl)pyridinium bromide hidrobromide] | 0 mm^2 | 0 mm^2 | 0 mm^3 | 0 mm^3 | 0.3 mm^2 | 0 mm^2 | 0.28 mm^3 | 0 mm^3 | 7.5 mm^2 | 4 mm^2 | 14.55 mm^3 | 4 mm^3 | 31 mm^2 | 18 mm^2 | 101.4 mm^3 | 36 mm^3 | 64.57 mm^2 | 45.5 mm^2 | 278.15 mm^3 | 148.75 mm^3 | Inhibitory effect on in vivo Renca tumour growth (conclusion in words) [1]: inhibit the in vivo growth of the renal cell carcinoma (Renca); Tumour surface, overall values (Mean) [1, 7]: 106.17 mm^2; Tumour surface, overall values (Median) [1, 7]: 90 mm^2; Tumour volume, overall values (Mean) [1, 7]: 557.18 mm^3; Tumour volume, overall values (Median) [1, 7]: 405 mm^3; p of differences in Renca tumour growth rate vs. placebo (surface or volume), Mann-Whitney U test ([1]; days 18th and 25th of tumour development, 260 ng i.p.): < 0.05 |
| CC(=O)NC1(C[n+]2ccccc2)CC(C(=O)O)N(C(C)=O)C1=O (stereo not drawn) [BLAS-320(Ac), 1-(1-acetyl-3-acetylamino-5-carboxy-2-oxopyrrolidin-3-ylmethyl)pyridinium acetate] | – | – | – | – | – | – | – | – | – | – | – | – | – | – | – | – | – | – | – | – | Solubility (in words) [2]: only soluble in water and methanol |
| Br.N[C@@]1(C[n+]2ccccc2)C[C@@H](C(=O)O)NC1=O.[Br-] (single isomer, unassigned; isomer 1) [isomer 1, 3R,5S-1-(3-Amino-5-carboxy-2-oxopyrrolidin-3-ylmethyl)pyridinium bromide hidrobromide] | 0 mm^2 | 0 mm^2 | 0 mm^3 | 0 mm^3 | 1.2 mm^2 | 0 mm^2 | 1.73 mm^3 | 0 mm^3 | 14.1 mm^2 | 12.5 mm^2 | 36.88 mm^3 | 22.75 mm^3 | 44.07 mm^2 | 36 mm^2 | 174.37 mm^3 | 108 mm^3 | 86.6 mm^2 | 81 mm^2 | 429.07 mm^3 | 329.25 mm^3 | Tumour surface, overall values (Mean) [1, 7]: 149.97 mm^2; Tumour surface, overall values (Median) [1, 7]: 160.5 mm^2; Tumour volume, overall values (Mean) [1, 7]: 895.58 mm^3; Tumour volume, overall values (Median) [1, 7]: 907.5 mm^3 |
